# Read-outs that look alike come from different tables or passages of the source.
# System: MRSA
# Experiment: Potentiating effect of galloyl quinic acid derivatives for the antibacterial activity of oxacillin (agar plate dilution method, MIC)
# Assay type: cell-based, Staphylococcus aureus
# Procedure: According to the agar plate dilution method defined by Japan Society of Chemotherapy, MIC (Minimum inhibitory concentration) was determined. CAMHA was prepared by adding 50 mg/l of Ca-ion, 25 mg/l of Mg-ion, and 2% of NaCl to Mueller-Hinton II Agar (MHA), and it was used as a medium for use in the measurement of sensitivity. The bacterial liquid was incubated at 37° C. overnight and diluted to 10^6 CFU/ml with saline.
# It was confirmed that the known substances shown below were contained in “Tara” and their MICs were determined as described in example 2 with respect to the effects of the combination use with oxacillin
compound,measurement,setting,value
O=C(OC1CC(O)(C(=O)O)CC(O)C1OC(=O)c1cc(O)c(O)c(O)c1)c1cc(O)c(O)c(O)c1 (centres unmarked) [compound 4],Oxacillin MIC,"ATCC 6538, with 12.5 μg/ml of compound",<0.5 µg/mL
same,Oxacillin MIC,"ATCC 6538, with 25 μg/ml of compound",<0.5 µg/mL
same,Oxacillin MIC,"ATCC 6538, with 50 μg/ml of compound",<0.5 µg/mL
same,Oxacillin MIC,"MRSA 1, with 12.5 μg/ml of compound",>256 µg/mL
same,Oxacillin MIC,"MRSA 1, with 25 μg/ml of compound",>256 µg/mL
same,Oxacillin MIC,"MRSA 1, with 50 μg/ml of compound",>256 µg/mL
same,Oxacillin MIC,"MRSA 2, with 12.5 μg/ml of compound",>256 µg/mL
same,Oxacillin MIC,"MRSA 2, with 25 μg/ml of compound",256 µg/mL
same,Oxacillin MIC,"MRSA 2, with 50 μg/ml of compound",256 µg/mL
same,Oxacillin MIC,"MRSA 3, with 12.5 μg/ml of compound",256 µg/mL
same,Oxacillin MIC,"MRSA 3, with 25 μg/ml of compound",256 µg/mL
same,Oxacillin MIC,"MRSA 3, with 50 μg/ml of compound",128 µg/mL
same,Oxacillin MIC,"MRSA 4, with 12.5 μg/ml of compound",>256 µg/mL
same,Oxacillin MIC,"MRSA 4, with 25 μg/ml of compound",>256 µg/mL
same,Oxacillin MIC,"MRSA 4, with 50 μg/ml of compound",>256 µg/mL
same,Oxacillin MIC,"MRSA 5, with 12.5 μg/ml of compound",>256 µg/mL
same,Oxacillin MIC,"MRSA 5, with 25 μg/ml of compound",≅256 μg/ml
same,Oxacillin MIC,"MRSA 5, with 50 μg/ml of compound",>256 µg/mL
same,Oxacillin MIC,"MRSA 6, with 12.5 μg/ml of compound",256 µg/mL
same,Oxacillin MIC,"MRSA 6, with 25 μg/ml of compound",256 µg/mL
same,Oxacillin MIC,"MRSA 6, with 50 μg/ml of compound",128 µg/mL
same,Oxacillin MIC,"MRSA 7, with 12.5 μg/ml of compound",>256 µg/mL
same,Oxacillin MIC,"MRSA 7, with 25 μg/ml of compound",>256 µg/mL
same,Oxacillin MIC,"MRSA 7, with 50 μg/ml of compound",>256 µg/mL
same,Oxacillin MIC,"MRSA 8, with 12.5 μg/ml of compound",256 µg/mL
same,Oxacillin MIC,"MRSA 8, with 25 μg/ml of compound",128 µg/mL
same,Oxacillin MIC,"MRSA 8, with 50 μg/ml of compound",128 µg/mL
same,Oxacillin MIC,"MRSA 9, with 12.5 μg/ml of compound",>256 µg/mL
same,Oxacillin MIC,"MRSA 9, with 25 μg/ml of compound",>256 µg/mL
same,Oxacillin MIC,"MRSA 9, with 50 μg/ml of compound",>256 µg/mL
same,Oxacillin MIC,"MRSA 10, with 12.5 μg/ml of compound",128 µg/mL
same,Oxacillin MIC,"MRSA 10, with 25 μg/ml of compound",128 µg/mL
same,Oxacillin MIC,"MRSA 10, with 50 μg/ml of compound",128 µg/mL
same,Oxacillin MIC,"MRSA 12, with 12.5 μg/ml of compound",>256 µg/mL
same,Oxacillin MIC,"MRSA 12, with 25 μg/ml of compound",>256 µg/mL
same,Oxacillin MIC,"MRSA 12, with 50 μg/ml of compound",>256 µg/mL
same,Oxacillin MIC,"MRSA 16, with 12.5 μg/ml of compound",>256 µg/mL
same,Oxacillin MIC,"MRSA 16, with 25 μg/ml of compound",>256 µg/mL
same,Oxacillin MIC,"MRSA 16, with 50 μg/ml of compound",>256 µg/mL
same,Oxacillin MIC,"MRSA 17, with 12.5 μg/ml of compound",256 µg/mL
same,Oxacillin MIC,"MRSA 17, with 25 μg/ml of compound",256 µg/mL
same,Oxacillin MIC,"MRSA 17, with 50 μg/ml of compound",256 µg/mL
same,Oxacillin MIC,"MRSA 18, with 12.5 μg/ml of compound",>256 µg/mL
same,Oxacillin MIC,"MRSA 18, with 25 μg/ml of compound",>256 µg/mL
same,Oxacillin MIC,"MRSA 18, with 50 μg/ml of compound",>256 µg/mL
same,Oxacillin MIC,"MRSA 20, with 12.5 μg/ml of compound",32 µg/mL
same,Oxacillin MIC,"MRSA 20, with 25 μg/ml of compound",16 µg/mL
same,Oxacillin MIC,"MRSA 20, with 50 μg/ml of compound",16 µg/mL
same,Oxacillin MIC,"MRSA 21, with 12.5 μg/ml of compound",128 µg/mL
same,Oxacillin MIC,"MRSA 21, with 25 μg/ml of compound",128 µg/mL
same,Oxacillin MIC,"MRSA 21, with 50 μg/ml of compound",64 µg/mL
same,Oxacillin MIC,"MRSA 22, with 12.5 μg/ml of compound",64 µg/mL
same,Oxacillin MIC,"MRSA 22, with 25 μg/ml of compound",64 µg/mL
same,Oxacillin MIC,"MRSA 22, with 50 μg/ml of compound",64 µg/mL
same,Oxacillin MIC,"MRSA COL, with 12.5 μg/ml of compound",>256 µg/mL
same,Oxacillin MIC,"MRSA COL, with 25 μg/ml of compound",>256 µg/mL
same,Oxacillin MIC,"MRSA COL, with 50 μg/ml of compound",>256 µg/mL
same,Oxacillin MIC,"MSSA 1003, with 12.5 μg/ml of compound",<0.5 µg/mL
same,Oxacillin MIC,"MSSA 1003, with 25 μg/ml of compound",<0.5 µg/mL
same,Oxacillin MIC,"MSSA 1003, with 50 μg/ml of compound",<0.5 µg/mL
same,Oxacillin MIC,"MSSA 1010, with 12.5 μg/ml of compound",<0.5 µg/mL
same,Oxacillin MIC,"MSSA 1010, with 25 μg/ml of compound",<0.5 µg/mL
same,Oxacillin MIC,"MSSA 1010, with 50 μg/ml of compound",<0.5 µg/mL
same,Oxacillin MIC,"MSSA 1032, with 12.5 μg/ml of compound",<0.5 µg/mL
same,Oxacillin MIC,"MSSA 1032, with 25 μg/ml of compound",<0.5 µg/mL
same,Oxacillin MIC,"MSSA 1032, with 50 μg/ml of compound",<0.5 µg/mL
same,Oxacillin MIC,"RN4220, with 12.5 μg/ml of compound",<0.5 µg/mL
same,Oxacillin MIC,"RN4220, with 25 μg/ml of compound",<0.5 µg/mL
same,Oxacillin MIC,"RN4220, with 50 μg/ml of compound",<0.5 µg/mL
"COC(=O)C1(O)CC(O)C(OC(=O)c2cc(O)c(O)c(O)c2)C(OC(=O)c2cc(O)c(O)c(O)c2)C1 (centres unmarked) [Methyl 4,5-digalloylquinate, methyl 4,5-digalloylquinate]",effect of combination use with oxacillin (words),,follows
same,effect of combination use with oxacillin (words),"listed as methyl 4,5-digalloylquinate",excellent

# From patent US20060235076A1, “Medicinal composition for treating infection with drug-resistant staphylococcus aureus” (priority 2003, published 2006)
